Test results published in US20220257722A1, “COMPOSITIONS AND METHODS OF TREATING AND PREVENTING SYSTEMIC COMPLICATIONS OF ACUTE ILLNESS” (United States Government As Represented By The Department …, priority 2019, published 2022).

What was measured:
rat jejunal mucosa = experiment: LPS mucosal-to-serosal transport in rat jejunal mucosa read by TLR4 reporter cell assay; type: cell-based; settings: same samples as FITC measurement; SSO 0.1 mM or MβCD 1 mM
Procedure: TLR-4 reporter cell assay. Since the LAL test may overestimate LPS levels due to nonspecific detection of […] (66), and FITC-LPS method measures LPS fluorescence without regard to the functional activity of LPS, experiments were carried out to determine whether the samples contained intact, functional LPS that is a preferential TLR-4 ligand. In order to confirm that intact LPS was measured in the samples used for measurements in the Ussing chamber study, a TLR4 reporter cell assay was used that consists of HEK293 cells co-transfected with murine TLR4, myeloid differentiation 2 and CD14 co-receptor genes and an inducible secreted embryonic alkaline phosphatase (SEAP) reporter gene with nuclear factor-kappa B (NF-kB) and activator protein 1 (AP-1) binding motifs (HEK-Blue mTLR-4, InvivoGen, San Diego, Calif.). Cells were harvested in a 96-well plate with standards and samples for 24 hr. The presence of LPS was detected as induced SEAP activity in the medium using HEK-Blue Detection (InvivoGen) by measuring absorbance at 655 nm with Synergy-2 24 hrs after the addition of standards and samples, according to the manufacturer's protocol. Ultrapure LPS from E. coli 055:B5 (LPS-B5 Ultrapure, InvivoGen) was used as standard at a range of 0.01-100 ng/ml.

[1] = cited from earlier work
[2] = test system: murine model of pancreatitis; experiment: Cerulein-induced acute pancreatitis in mice: organ cytokines, PV LPS, FD4 uptake, histology; type: in vivo, C57BL/6 mice
Procedure: Methods. Pancreatitis was induced in C57BL/6 male and female mice at 8-10 weeks of age by multiple injections of cerulein (50 μg/kg, ip, hourly, 8 times). Samples (e.g., PV and abdominal arterial blood) were collected 0, 18, and 24 hrs after the final injection of cerulein. Tissues were removed and stored for histology and real-time polymerase chain reaction (PCR)-based expression analysis. TDG, (500 μg/kg, ip) was given 0 and 18 hrs after the final injection of cerulein, followed by sampling 24 hrs after the final injection of cerulein. Proinflammatory cytokines was assessed by real-time PCR; PV LPS levels were measured using the limulus amebocyte lysate (LAL) test.

[3] = 24 hrs after cerulein treatment

Row | Molecule | LPS m-to-s transport during OA/TCA exposure by TLR4 reporter cell assay (rat jejunal mucosa) | elimination half-life ([1]; in humans) | serum t1/2 ([1]; reference [44]) | PV LPS levels ([2]; 18 and 24 hrs after cerulein treatment, LAL test, TDG 500 μg/kg ip) | PV FD4 levels ([2]; 18 and 24 hrs after cerulein treatment, TDG 500 μg/kg ip) | histological changes in the pancreas [2, 3] | lung inflammation (histology) [2, 3] | Plasma TNFα levels ([2]; 24 hrs after cerulein treatment, TDG 500 μg/kg ip) | increased expression of IL-1β and IL-6 in the pancreas ([2]; TDG 500 μg/kg ip 0 and 18 hrs after final cerulein) | elevated lipase levels ([2]; TDG 500 μg/kg ip 0 and 18 hrs after final cerulein, plasma) | inflammatory cytokine expression in the lung ([2]; TDG 500 μg/kg ip 0 and 18 hrs after final cerulein, sampling 24 hrs, real-time PCR)
1 | CCCCCCCC/C=C\CCCCCCCC(=O)ON1C(=O)CC(S(=O)(=O)O)C1=O (stereo not drawn) [SSO, sulfosuccinimidyl oleate] | abolished | – | – | – | – | – | – | – | – | – | –
2 | CC[C@H](C)[C@H](NC(=O)[C@H](Cc1ccccc1)NC(=O)[C@H](CC(=O)O)NC(=O)[C@H](CCCNC(=N)N)NC(=O)[C@H](C)NC(=O)[C@H](C)NC(=O)[C@H](CC(C)C)NC(=O)[C@H](CC(N)=O)NC(=O)[C@H](CC(=O)O)NC(=O)[C@H](CC(C)C)NC(=O)[C@@H](NC(=O)[C@@H](NC(=O)[C@H](CC(N)=O)NC(=O)[C@H](CCSC)NC(=O)[C@H](CCC(=O)O)NC(=O)[C@H](CC(=O)O)NC(=O)[C@H](CO)NC(=O)[C@H](Cc1ccccc1)NC(=O)[C@H](CO)NC(=O)CNC(=O)[C@H](CC(=O)O)NC(=O)CNC(=O)[C@@H](N)Cc1c[nH]cn1)[C@@H](C)O)[C@@H](C)CC)C(=O)N[C@@H](CC(N)=O)C(=O)N[C@@H](Cc1c[nH]c2ccccc12)C(=O)N[C@@H](CC(C)C)C(=O)N[C@H](C(=O)N[C@@H](CCC(N)=O)C(=O)N[C@H](C(=O)N[C@@H](CCCCN)C(=O)N[C@H](C(=O)N[C@H](C(=O)N[C@@H](CC(=O)O)C(=O)O)[C@@H](C)O)[C@@H](C)CC)[C@@H](C)O)[C@@H](C)CC [TDG] | – | about 2 hours | ~2 h | significantly reduced | significantly reduced | no effect | reduced | reversed | no effect | no effect | significantly reduced
3 | methyl-β-cyclodextrin [MβCD] | abolished | – | – | – | – | – | – | – | – | – | –
